Drawing on paper PMC4466647, “Inhibition of non-small cell lung cancer (NSCLC) growth by a novel small molecular inhibitor of EGFR” (Oncotarget, 2015), this text covers IC50 for 1 molecule.

The experiment has as its target EGFR (Homo sapiens, UniProt P00533). Put plainly: in vitro EGFR kinase assay (Promega Kinase-Glo luminescence, […] ATP). Type of experiment: biochemical. (In Kinase-Glo more light means more ATP remaining.)

EGFR, sequence (P00533 25-1210): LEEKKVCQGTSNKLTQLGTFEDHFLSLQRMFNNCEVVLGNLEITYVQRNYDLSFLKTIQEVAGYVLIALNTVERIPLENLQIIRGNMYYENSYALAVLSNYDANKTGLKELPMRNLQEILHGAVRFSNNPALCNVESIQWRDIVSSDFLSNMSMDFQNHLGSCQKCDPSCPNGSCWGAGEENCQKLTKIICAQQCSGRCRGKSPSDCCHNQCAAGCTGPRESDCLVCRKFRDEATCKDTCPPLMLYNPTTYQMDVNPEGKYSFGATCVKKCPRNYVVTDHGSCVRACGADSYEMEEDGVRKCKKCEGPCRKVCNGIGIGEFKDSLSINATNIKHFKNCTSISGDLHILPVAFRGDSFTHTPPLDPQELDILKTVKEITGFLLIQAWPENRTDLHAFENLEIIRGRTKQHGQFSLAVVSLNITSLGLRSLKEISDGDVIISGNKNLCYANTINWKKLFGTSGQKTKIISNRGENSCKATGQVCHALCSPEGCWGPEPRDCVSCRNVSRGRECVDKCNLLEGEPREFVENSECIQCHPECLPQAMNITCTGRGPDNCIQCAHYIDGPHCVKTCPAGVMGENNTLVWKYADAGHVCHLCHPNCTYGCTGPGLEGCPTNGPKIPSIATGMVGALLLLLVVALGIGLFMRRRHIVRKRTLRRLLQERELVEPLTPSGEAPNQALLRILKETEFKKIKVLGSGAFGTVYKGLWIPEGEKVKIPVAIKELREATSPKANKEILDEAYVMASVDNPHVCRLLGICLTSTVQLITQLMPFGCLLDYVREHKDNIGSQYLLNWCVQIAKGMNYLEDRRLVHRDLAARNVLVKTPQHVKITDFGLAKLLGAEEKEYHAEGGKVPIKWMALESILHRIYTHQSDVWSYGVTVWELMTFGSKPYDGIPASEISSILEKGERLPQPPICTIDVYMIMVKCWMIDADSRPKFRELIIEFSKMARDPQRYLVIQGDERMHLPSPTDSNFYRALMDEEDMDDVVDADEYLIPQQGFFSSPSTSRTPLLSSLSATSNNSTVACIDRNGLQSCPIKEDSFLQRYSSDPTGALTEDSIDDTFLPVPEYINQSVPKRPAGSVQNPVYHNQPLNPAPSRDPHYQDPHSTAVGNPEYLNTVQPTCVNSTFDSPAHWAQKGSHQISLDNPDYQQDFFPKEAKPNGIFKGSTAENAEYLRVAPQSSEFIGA

As a reminder, the IC50 is the concentration that inhibits the measured activity by half. On to `O=C(Cc1ccccc1)N1CCc2c([nH]c3ccc(F)cc23)C1` [compound 308, WB-308], for which the IC50 is ~43 nM.
